One compound from PMC2234460 (The Journal of General Physiology, 2002) can be followed below.

For the assay, the target named is Shaker K+ channel (Shaker B) (Drosophila melanogaster, UniProt P08510, DEL6-46/F425G/K253C/T449F). The experiment in a line: two-electrode voltage clamp in Xenopus oocytes. It is filed as cell-based. A general note: In two-electrode clamp one electrode senses voltage and the other passes current.

Structures are written as SMILES.

A word on the Kd: it is the concentration at which binding is half-saturated. A low value points to tighter binding. `CC[N+](CC)(CC)CC` [TEA] returned a dissociation constant (Kd) of 200 µM.
